The numbers were not newly measured in PMC4741275 (Analytical Chemistry, 2016), which cites them from elsewhere.

This data set concerns lysosomes.

For the compound `Cc1cn(-c2cc(NC(=O)c3ccc(C)c(Nc4nccc(-c5cccnc5)n4)c3)cc(C(F)(F)F)c2)cn1` [nilotinib], the enrichment in lysosomes result was “over 1000 fold”.

With `Cc1ccc(NC(=O)c2ccc(CN3CCN(C)CC3)cc2)cc1Nc1nccc(-c2cccnc2)n1` [imatinib], the enrichment in lysosomes entry is on record as “over 1000 fold”.
